Results from US6399542B1, “Alkoxyimino-substituted bicyclic compounds compositions containing the same and method of making such compounds” (Agro-Kanesho Co., Ltd., priority 1997, dated 2002).
Read-outs that look alike come from different tables or passages of the source.

Columns and labels:
Puccinia recondite = experiment: Penetration and translocation in wheat leaves (covered leaf tip, brown rust); type: in vivo
Erysiphe graminis = experiment: Effects on Barley powdery mildew (preventive spray test); type: in vivo; settings: lesions counted seven days after inoculation
[1] = system: Psecidoperonospora cubensis; experiment: Effect on Cucumber downy mildew (preventive spray test); type: in vivo; settings: 7 days after inoculation
Rhizoctonia solani = experiment: Effect on Rice sheath blight (preventive spray test); settings: 10 days after inoculation
Protocol: An emulsion of a compound of the present invention prepared in Preparation Example 2 was diluted with water and uniformly sprayed on 5 rice plant seedlings (variety: Koshihikari) in 4.5-leaf stage in each plastic pot having a diameter of 6 cm, with a spray gun. One day after the spraying, the seedlings were bundled at the second sheath with a string. Colonies of Rhizoctonia solani previously cultured in PSA culture medium were bored with a cork borer to obtain pieces having a diameter of 4 mm. The piece was put in the bundle, and kept in a high-humidity room at 25° C. until the examination. Ten days after the inoculation, the degree of the disease was examined, and the preventive rate (effect of inhibiting the disease) was calculated on the basis of the following standard:
Preventive rate=[1-D′/C′]×100
C′: Severity in untreated section
D′: Severity in treated section.

Pyricularia oryzae = type: in vivo; settings: Rice blast, 7 days after inoculation
Chochliobolus miyabeanus = experiment: Effect on Rice brown spot (preventive spray test); type: in vivo; settings: 7 days after inoculation
Puccinia recondita = experiment: Effect on Wheat brown rust (preventive spray test); type: in vivo; settings: 7 days after inoculation
Botrytis cinerea = experiment: Effect on Cucumber gray mold (cotyledon paper disc test); type: in vivo; settings: 3 days after inoculation
Phytophthora infestans = type: in vivo; settings: Tomato late blight, 5 days after inoculation
[2] = system: Pseudoperonospora cubenis; experiment: Penetration and translocation in cucumber leaf (drop on back of leaf, downy mildew); type: in vivo; settings: 10 μl drop on back of leaf, conc. of active ingredient 200 ppm, disease-free area 5 days after the spraying
Protocol: Four points were marked at random on the first leaf of each cucumber seedling (variety: Shogoin aonaga fushinari) in two-leaf stage in each pot having a diameter of 6 cm. […] The leaf was kept in a greenhouse for one day and then uniformly inoculated with a zoospore suspension of Pseudoperonospora cubenis by means of a spray gun, then left to stand in a high-humidity room at 24° C. for 24 hours, and kept in a greenhouse. The area of the disease-free part 5 days after the spraying was represented in terms of the index.
3: At least 40% of the area of the leaf was free from the disease.
2: 20 to 40% of the area of the leaf was free from the disease.
1: An area larger than the spot of the drop but smaller than 20% of the area of the leaf was free from the disease.
0: Only the spot of the drop was free from the disease.

[3] = conc. of active ingredient 100 ppm
[4] = conc. of active ingredient 20 ppm
[5] = conc. of active ingredient 4 ppm
[6] = conc. of active ingredient 200 ppm

SMILES	Number of lesions formed within the mark to the tip (Puccinia recondite; [3])	Preventive rate (%) (Puccinia recondite; [3])	Rate of the translocation perfect preventive conc. (%) (Puccinia recondite; [3])	Preventive rate (%) (Erysiphe graminis; [4])	Preventive rate (%) (Erysiphe graminis; [3])	melting point [°C]	Preventive rate (%) [1, 4] [%]	Preventive rate (%) [1, 3] [%]	Preventive rate (%) (Rhizoctonia solani; [4])	Preventive rate (%) (Pyricularia oryzae; [4])	Preventive rate (%) (Pyricularia oryzae; [3])	Preventive rate (%) (Chochliobolus miyabeanus; [4])	Preventive rate (%) (Chochliobolus miyabeanus; [3])	Preventive rate (%) (Puccinia recondita; [4])	Preventive rate (%) (Puccinia recondita; [3])	Preventive rate (%) (Botrytis cinerea; [4])	Preventive rate (%) (Botrytis cinerea; [3])	Preventive rate (%) (Erysiphe graminis; [5])	Preventive rate (%) (Phytophthora infestans; [4])	Preventive rate (%) (Phytophthora infestans; [3])	other results
CON=C(C(=O)OC)c1ccccc1COc1ccc2c(c1C)OC(C)CC2=NOC (racemic) [d-10]	0	100	100																		
CON=C1COc2cc(OCc3ccccc3/C(=N\OC)C(=O)OC)ccc21 [a-4, (E) methyl methoxyimino-[2-(3-methoxyimino-2,3-dihydrobenzofuran-6-yloxymethyl)-phenyl]acetate]				93	100	108 to 110	94	94	93	86	90	75	80	94	98						Preventive rate (%) (Rhizoctonia solani; [3]): 92%
CON=C1COc2cc(OCc3ccccc3N(OC)C(=O)OC)ccc21 [a-7, methyl N-[2-(3-methoxyimino-2,3-dihydro-benzofuran-6-yloxymethyl)-phenyl]-N-methoxycarbamate]						102 to 103	94	97						99	100	56	97				
CNC(=O)N(OC)c1ccccc1COc1ccc2c(c1)OCC2=NOC [a-8, N-[2-(3-methoxyimino-2,3-dihydrobenzofuran-6-yloxymethyl)phenyl]-N-methoxy-N′-methylurea]						109 to 112	88	94						99	100						Preventive rate (%) [1, 5]: 75%
CNC(=O)/C(=N/OC)c1ccccc1COc1cc2c(cc1C)C(=NOC)CO2 [a-27]				100	100					77	82	77	83	100	100			100	95	95	Number of lesions formed within the mark to the tip (Puccinia recondite; [6]): 0; Preventive rate (%) (Puccinia recondite; [6]): 100%; Rate of the translocation perfect preventive conc. (%) (Puccinia recondite; [6]): 100%; Preventive rate (%) (Phytophthora infestans; [5]): 95%; Preventive rate (%) (Puccinia recondita; [5]): 98%
CCON=C1COc2cc(OCc3ccccc3/C(=N\OC)C(=O)NC)ccc21 [a-37, (E) methoxyimino-[2-(3-ethoxyimino-2,3-dihydrobenzofuran-6-yloxymethyl)-phenyl]-N-methyl-acetamide]						110 to 113	100	100						99	100	100	100				
CNC(=O)/C(=N/OC)c1ccccc1COc1ccc2c(c1C)OCC2=NOC/C=C/Cl [a-62]				100	100		100	100	91			83	88	100	100	96	100	98	97	98	Preventive rate (%) [1, 5]: 94%; Preventive rate (%) (Rhizoctonia solani; [3]): 98%; Preventive rate (%) (Puccinia recondita; [5]): 100%
CNC(=O)C(=NOC)c1ccccc1COc1ccc2c(c1)OCCC2=NOC [c-5]							100	100	39	97	99	35	100	96	100				88	94	Number of lesions formed within the mark to the tip (Puccinia recondite; [6]): 0; Preventive rate (%) (Puccinia recondite; [6]): 100%; Rate of the translocation perfect preventive conc. (%) (Puccinia recondite; [6]): 100%; Index [2]: 3 (At least 40% of the area of the leaf was free from the disease.); Preventive rate (%) (Rhizoctonia solani; [3]): 89%
COC=C(C(=O)OC)c1ccccc1COc1ccc2c(c1C)OCCC2=NOC [c-13]	0	100	100	100	100		100	100		94	100	93	100	100	100	49	58	100	100	100	Preventive rate (%) [1, 5]: 100%; Preventive rate (%) (Chochliobolus miyabeanus; [5]): 82%; Preventive rate (%) (Phytophthora infestans; [5]): 95%; Preventive rate (%) (Puccinia recondita; [5]): 100%
CNC(=O)C(=NOC)c1ccccc1COc1ccc2c(c1)CCC2=NOC [e-5]				95	100		100	100		97	100	84	90	99	100				95	98	Number of lesions formed within the mark to the tip (Puccinia recondite; [6]): 0; Preventive rate (%) (Puccinia recondite; [6]): 100%; Rate of the translocation perfect preventive conc. (%) (Puccinia recondite; [6]): 100%; Index [2]: 3 (At least 40% of the area of the leaf was free from the disease.)
CNC(=O)C(=NOC)c1ccccc1COc1ccc2c(c1C)CCC2=NOC [e-16]	0	100	100	100	100		100	100						100	100			100	100	100	
CNC(=O)C(=NOC)c1ccccc1COc1cc(C)c2c(c1C)CCC2=NOC [e-23]				100	100		96	100	64			98	98	100	100	86	96	100	100	100	Preventive rate (%) (Rhizoctonia solani; [3]): 69%
CNC(=O)C(=NOC)c1ccccc1COc1cc2c(cc1C)C(=NOC)CC2 [e-27]	0	100	100	99	100		100	100				99	99	100	100			99	100	100	Preventive rate (%) [1, 5]: 100%; Preventive rate (%) (Chochliobolus miyabeanus; [5]): 96%; Preventive rate (%) (Phytophthora infestans; [5]): 100%; Preventive rate (%) (Puccinia recondita; [5]): 100%
